Results published in ChEMBL document CHEMBL1129332, “2-Phenyl-4-quinolinecarboxamides: a novel class of potent and selective non-peptide competitive antagonists for the human neurokinin-3 receptor” (J Med Chem, 1996).

Each compound was assayed against T1, Substance-K receptor (Homo sapiens, UniProt P21452).
T1 sequence (P21452 whole entry): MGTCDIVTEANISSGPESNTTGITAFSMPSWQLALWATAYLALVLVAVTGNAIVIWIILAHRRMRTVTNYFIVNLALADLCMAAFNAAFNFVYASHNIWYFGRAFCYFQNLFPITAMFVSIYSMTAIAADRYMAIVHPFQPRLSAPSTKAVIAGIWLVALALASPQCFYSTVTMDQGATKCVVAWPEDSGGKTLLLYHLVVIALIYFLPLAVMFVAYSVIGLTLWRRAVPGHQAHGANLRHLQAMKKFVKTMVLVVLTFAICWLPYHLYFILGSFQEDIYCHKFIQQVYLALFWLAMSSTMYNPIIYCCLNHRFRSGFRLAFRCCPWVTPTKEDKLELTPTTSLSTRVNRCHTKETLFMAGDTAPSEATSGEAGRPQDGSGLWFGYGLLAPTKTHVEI
Format: cell membranes, CHO

**Q.** How did the Ki turn out when `COC(=O)[C@H](NC(=O)c1cc(-c2ccccc2)nc2ccccc12)c1ccccc1` was run?
**A.** 8330 nM

**Q.** Which Ki does the source give for `COC(=O)[C@@H](NC(=O)c1cc(-c2ccccc2)nc2ccccc12)c1ccccc1` here?
**A.** 1220 nM

**Q.** `COC(=O)C(NC(=O)c1cc(-c2ccccc2)nc2ccccc12)c1ccccc1` (configuration not stated) was tested. Which Ki did it give?
**A.** 2950 nM

**Q.** For `CC[C@H](NC(=O)c1cc(-c2ccccc2)nc2ccccc12)c1ccccc1` [AZD-7624], which Ki is on record?
**A.** 237 nM

**Q.** For `CC[C@H](NC(=O)c1c(C)c(-c2ccccc2)nc2ccccc12)c1ccccc1` [SB-222200], which Ki is on record?
**A.** 277 nM

Species on record: Oryctolagus cuniculus
Experiment: Antagonism of senktide-induced contraction in rabbit isolated iris sphincter muscle
Format: functional

**Q.** `CC(=O)N(C)C1(c2ccccc2)CCN(CCC[C@]2(c3ccc(Cl)c(Cl)c3)CCCN(C(=O)c3ccccc3)C2)CC1` [OSANETANT] was tested. Which Kb did it give?
**A.** 2 nM

The compounds below were run against T2, Substance-P receptor (Homo sapiens, UniProt P25103) (assay: Binding affinity against hTachykinin receptor 1 for the displacement of [3H]-substance P binding from Tachykinin receptor 1 CHO membrane).
T2 sequence (P25103 whole entry): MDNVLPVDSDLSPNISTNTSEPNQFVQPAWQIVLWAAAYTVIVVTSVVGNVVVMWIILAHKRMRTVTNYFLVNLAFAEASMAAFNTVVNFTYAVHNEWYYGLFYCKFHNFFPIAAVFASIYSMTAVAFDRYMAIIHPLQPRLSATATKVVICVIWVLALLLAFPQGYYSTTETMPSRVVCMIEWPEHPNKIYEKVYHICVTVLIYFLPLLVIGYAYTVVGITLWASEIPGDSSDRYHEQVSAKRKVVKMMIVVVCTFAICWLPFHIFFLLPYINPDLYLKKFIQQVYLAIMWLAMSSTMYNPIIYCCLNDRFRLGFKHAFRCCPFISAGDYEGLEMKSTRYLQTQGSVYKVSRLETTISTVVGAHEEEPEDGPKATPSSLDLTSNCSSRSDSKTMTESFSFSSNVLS

**Q.** With `COc1ccc2c(C(=O)NCc3ccccc3)cc(-c3ccccc3)nc2c1` as the compound, how does the Ki read?
**A.** > 10000 nM

The compounds below were run against T2, Substance-P receptor (assay: Binding Affinity of [3H]- substance P towards Tachykinin receptor 1-CHO cell membranes (n=3-8)).

**Q.** For `COC(=O)[C@H](NC(=O)c1cc(-c2ccccc2)nc2ccccc12)c1ccccc1`, which Ki is on record?
**A.** > 100000 nM

**Q.** How did the Ki turn out when `COC(=O)[C@@H](NC(=O)c1cc(-c2ccccc2)nc2ccccc12)c1ccccc1` was run?
**A.** > 100000 nM

**Q.** With `COC(=O)C(NC(=O)c1cc(-c2ccccc2)nc2ccccc12)c1ccccc1` (configuration not stated) as the compound, how does the Ki read?
**A.** > 100000 nM

**Q.** How did the Ki turn out when `CC[C@H](NC(=O)c1cc(-c2ccccc2)nc2ccccc12)c1ccccc1` [AZD-7624] was run?
**A.** > 100000 nM

**Q.** How did the Ki turn out when `CC[C@H](NC(=O)c1c(C)c(-c2ccccc2)nc2ccccc12)c1ccccc1` [SB-222200] was run?
**A.** > 100000 nM
